Experimental data reported in article PMC9167309, “Multiple-reaction monitoring (MRM) LC–MS/MS quantitation of venlafaxine and its O-desmethyl metabolite for a preclinical pharmacokinetic study in rabbits” (Scientific Reports, 2022).

Experiments:
dopamine reuptake = tested on: dopamine reuptake; parameters: method as in doi:10.2165/00023210-200014060-00006; details: cited from earlier work
[1] = Preclinical PK study: plasma VEN and ODV after a single oral dose of ER formulations, LC-MRM-MS/MS, noncompartmental analysis; format: in vivo, New Zealand White rabbits; details: throughout the sampling period (36 h); after oral optimized ER tablet and RLD; above LOQ
Protocol: Four pairs (male/female) of healthy rabbits, each weighing 3–4 kg, were provided by Government Rabbit Farm, Wussan (Pattan), Kashmir. The rabbits were divided into a reference group and a test group. […] The resulting plasma samples were frozen at − 40 °C until further analysis.
The PK evaluation summarized in Table 11 was carried out by way of noncompartmental analysis (NCA) using WinNonlin 8.1 and the additional statistical computations were performed in SAS 9.4. […] The statistical assurance of bioequivalent similarity given in Table 12 was computed using analysis of variance on log-transformed PK parameters (Cmax, AUClast, and AUCINF_obs) of reference and test product.

noradrenaline reuptake = tested on: noradrenaline reuptake; parameters: method as in doi:10.2165/00023210-200014060-00006; details: cited from earlier work
serotonin reuptake = details: cited from earlier work

Row | SMILES | inhibition of dopamine reuptake (dopamine reuptake) | plasma concentrations [1] [ng/mL] | inhibition of noradrenaline reuptake (noradrenaline reuptake) | inhibition of serotonin reuptake (serotonin reuptake)
1 | COc1ccc(C(CN(C)C)C2(O)CCCCC2)cc1 (racemic) [VEN, (RS) 1-[2-(dimethylamino)-1-(4-methoxyphenyl)ethyl]cyclohexanol] | weakly inhibit | > 0.5 | potent inhibitors | 
2 | CN(C)CC(c1ccc(O)cc1)C1(O)CCCCC1 (stereo not shown) [ODV, O-desmethylvenlafaxine] | weakly inhibit | > 0.5 | potent inhibitors | potent inhibitors
